Assay in all cases: NCI 60 cell line screen
What all share (format): cell-based

In one assay the test system is ACHN. Particulars: Renal Cancer, single concentration 10^−5 M. The procedure, abridged:
(§1)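 Screened by the US National Cancer Institute at a single concentration of 10^-5 M across its panel of 60 human cancer cell lines. Values reflect one-dose cytotoxic activity.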

The next assay deals with CCRF-CEM. Particulars: Leukemia, single concentration 10^−5 M. The procedure, abridged:
as §1

The next assay concerns DU-145. To be noted: DU-145, Prostate Cancer; single concentration 10^−5 M. Put shortly: as §1
A further assay deals with HL-60 (TB). To be noted: Leukemia, single concentration 10^−5 M. Put shortly: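 NCI-60 single-point assay, 10^-5 M compound, cytotoxic activity per cell line.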
The next assay has as its system HOP-62. Particulars: HOP-62, Non-Small Cell Lung Cancer; single concentration 10^−5 M. Put shortly:
as §1

A further assay has as its system HOP-92. To be noted: HOP-92, Non-Small Cell Lung Cancer; single concentration 10^−5 M. The procedure, abridged:
as §1

The subject of the next assay is HS 578T. Particulars: Breast Cancer, single concentration 10^−5 M. The procedure, abridged:
as §1

A further assay relates to K-562. To be noted: K-562, Leukemia; single concentration 10^−5 M. Put shortly: as §1
The next assay concerns LOX IMVI. Particulars: Melanoma, single concentration 10^−5 M. Put shortly:
as §1

The next assay relates to MALME-3M. To be noted: Melanoma, single concentration 10^−5 M. The procedure, abridged:
as §1

Another assay has as its system MOLT-4. Particulars: MOLT-4, Leukemia; single concentration 10^−5 M. The procedure, abridged: as §1
The subject of another assay is NCI-H322M. Particulars: Non-Small Cell Lung Cancer, single concentration 10^−5 M. The procedure, abridged: as §1
A further assay has as its system NCI-H460. Particulars: NCI-H460, Non-Small Cell Lung Cancer; single concentration 10^−5 M. The procedure, abridged:
as §1

A further assay deals with NCI-H522. Particulars: NCI-H522, Non-Small Cell Lung Cancer; single concentration 10^−5 M. The procedure, abridged: as §1
For the next assay, the system named is OVCAR-5. To be noted: OVCAR-5, Ovarian Cancer; single concentration 10^−5 M. Put shortly:
as §1

The next assay concerns SF-268. Particulars: SF-268, CNS Cancer; single concentration 10^−5 M. Put shortly: as §1
The subject of another assay is SF-295. To be noted: SF-295, CNS Cancer; single concentration 10^−5 M. Put shortly: as §1
The subject of a further assay is SK-MEL-28. To be noted: SK-MEL-28, Melanoma; single concentration 10^−5 M. Put shortly: as §1
Another assay relates to SK-MEL-2. Particulars: SK-MEL-2, Melanoma; single concentration 10^−5 M. The procedure, abridged: as §1
A further assay deals with SN12C. Particulars: Renal Cancer, single concentration 10^−5 M. Put shortly: as §1
The subject of the next assay is SNB-19. Particulars: SNB-19, CNS Cancer; single concentration 10^−5 M. Put shortly:
as §1

The next assay deals with SR. To be noted: Leukemia, single concentration 10^−5 M. Put shortly: as §1
Another assay has as its system SW-620. Particulars: SW-620, Colon Cancer; single concentration 10^−5 M. The procedure, abridged: as §1
A further assay relates to T-47D. Particulars: Breast Cancer, single concentration 10^−5 M. Put shortly: as §1

From article PMC11530689, “Anti colorectal cancer activity and in silico studies of novel pyridine nortopsentin analog as cyclin dependent kinase 6 inhibitor” (Scientific Reports, 2024) come the findings set out here.

Turning to `COc1cc(-c2cc(-c3c[nH]c4ccccc34)nc(-c3c[nH]c4ccccc34)c2C#N)cc(OC)c1OC` [4g], the Growth % is on record as 98.52% in the assay with ACHN; 99.17% in the assay on CCRF-CEM; 106.13% in the assay on DU-145; 101.32% with HL-60 (TB); 87.93% in the assay on HOP-62; 92.84% in the assay with HOP-92. Further, the Growth % in the assay on HS 578T is listed as 99.50%; in the assay with K-562, 90.08%; in the assay with LOX IMVI, 98.85%; with MALME-3M, 88.70%; with MOLT-4 it was 100.72%; in the assay with NCI-H322M, 93.11%. Besides, the Growth % in the assay on NCI-H460 is given as 106.65%; with NCI-H522, 93.33%; in the assay with OVCAR-5 it was 103.55%; with SF-268 it was 97.03%; in the assay with SF-295 it was 95.05%; with SK-MEL-28, 107.46%. The Growth % in the assay on SK-MEL-2 is given as 92.02%; in the assay with SN12C, 91.09%; with SNB-19, 98.31%; in the assay with SR, 94.92%; in the assay with SW-620, 100.40%; in the assay with T-47D, 96.11%.
For `N#Cc1c(-c2ccc([N+](=O)[O-])cc2)cc(-c2c[nH]c3ccccc23)nc1-c1c[nH]c2ccccc12` [4h], the Growth % is 94.69% with ACHN; 103.06% in the assay with CCRF-CEM; 103.04% with DU-145; 97.00% with HL-60 (TB); 99.88% with HOP-62; 98.33% in the assay with HOP-92. Moreover, the Growth % in the assay with HS 578T is 94.79%; with K-562, 94.26%; with LOX IMVI, 92.89%; in the assay on MALME-3M, 102.24%; with MOLT-4, 100.27%; in the assay on NCI-H322M, 95.29%. The Growth % is 100.56% with NCI-H460; 95.41% in the assay on NCI-H522; 105.31% with OVCAR-5; 93.92% in the assay with SF-268; 100.99% in the assay on SF-295; 106.75% in the assay with SK-MEL-28. Further, the Growth % with SK-MEL-2 came out at 96.75%; in the assay with SN12C, 98.48%; in the assay with SNB-19 it was 100.62%; in the assay on SR, 84.51%; in the assay with SW-620, 105.72%; in the assay with T-47D it was 88.78%.
In the case of `N#Cc1c(-c2ccc(O)cc2)cc(-c2c[nH]c3ccccc23)nc1-c1c[nH]c2ccccc12` [4j], the Growth % stood at 72.15% with ACHN; 76.51% with CCRF-CEM; 104.31% in the assay with DU-145; 107.76% in the assay on HL-60 (TB); 94.38% in the assay on HOP-62; 125.42% with HOP-92. In addition, the Growth % with HS 578T is given as 89.18%; with K-562 it was 67.98%; in the assay with LOX IMVI, 62.75%; in the assay with MALME-3M it was 114.20%; in the assay on MOLT-4 it was 87.60%; in the assay with NCI-H322M it was 101.04%. Besides, the Growth % in the assay on NCI-H460 was 103.74%; in the assay with NCI-H522, 85.59%; with OVCAR-5 it was 108.44%; in the assay with SF-268, 105.02%; with SF-295, 87.00%; in the assay with SK-MEL-28, 76.45%. For the same compound, the Growth % with SK-MEL-2 turned out to be 100.11%; with SN12C it was 95.63%; in the assay on SNB-19, 108.35%; in the assay on SR, 76.19%; in the assay on SW-620 it was 108.39%; in the assay with T-47D, 98.31%.
